Assay results published in paper PMC10418701, “Pharmacological Screening of Kv7.1 and Kv7.1/KCNE1 Activators as Potential Antiarrhythmic Drugs in the Zebrafish Heart” (International Journal of Molecular Sciences, 2023).
Values belong to the molecule of their own block, whether it stands above or below them.

Key:
[1] = target: T1, zebrafish Kv7.1 (KCNQ1) (Danio rerio, UniProt B0R0K2); test: cell-based; format: cell-based
T1 construct: gene kcnq1.1
T1 sequence (B0R0K2 1-655): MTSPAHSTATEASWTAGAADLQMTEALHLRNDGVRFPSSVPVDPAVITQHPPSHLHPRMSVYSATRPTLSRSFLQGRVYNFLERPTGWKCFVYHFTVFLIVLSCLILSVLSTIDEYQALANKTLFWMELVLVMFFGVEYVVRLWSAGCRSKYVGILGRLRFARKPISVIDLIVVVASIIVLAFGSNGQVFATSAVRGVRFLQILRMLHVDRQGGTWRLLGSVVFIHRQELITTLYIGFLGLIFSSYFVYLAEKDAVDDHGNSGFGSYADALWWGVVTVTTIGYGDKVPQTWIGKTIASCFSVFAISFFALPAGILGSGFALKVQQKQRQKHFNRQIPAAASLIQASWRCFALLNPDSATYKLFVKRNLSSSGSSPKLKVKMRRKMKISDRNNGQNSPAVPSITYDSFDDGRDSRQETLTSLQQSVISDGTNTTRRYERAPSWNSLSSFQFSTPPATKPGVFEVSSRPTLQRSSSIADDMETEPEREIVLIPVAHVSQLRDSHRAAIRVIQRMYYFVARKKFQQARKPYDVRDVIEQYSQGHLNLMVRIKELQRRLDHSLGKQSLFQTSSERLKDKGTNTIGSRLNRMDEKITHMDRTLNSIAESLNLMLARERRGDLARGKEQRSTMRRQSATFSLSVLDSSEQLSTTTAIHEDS

[2] = target: T1, zebrafish Kv7.1 (KCNQ1); test: two-electrode voltage clamp, zebrafish Kv7.[…] expressed in Xenopus laevis oocytes; format: cell-based

two-electrode voltage clamp, zebrafish Kv7.1 expressed in Xenopus laevis oocytes [1]: 12.2 mV left shift of V0.5 at 20 µM
SMILES: CC/C=C\C/C=C\C/C=C\C/C=C\C/C=C\C/C=C\CCC(=O)NCC(=O)O [DHA-Gly]

inhibition at 10 µM [2]: 76%
SMILES: CCS(=O)(=O)N(C)[C@H]1c2cc(C#N)ccc2OC(C)(C)[C@@H]1O (racemic) [chromanol 293B]

fold induction at 1 µM ([1]; read-out: two-electrode voltage clamp, zebrafish Kv7.1 expressed in Xenopus laevis oocytes): > 8
SMILES: COc1ccc(-c2csc(NC(=O)[C@H]3CCCCN3S(=O)(=O)c3ccc(C)cc3)n2)cc1 [ML-277]
